Values quoted from earlier work, collected in patent US12194111B2, “Alpha emitter compositions and methods” (Nant Holdings IP, LLC, priority 2018, dated 2025).

Test system: relapsed or refractory soft tissue sarcoma
Details: clinical trial; treatment of relapsed or refractory soft tissue sarcoma

For `COc1cccc2c1C(=O)c1c(O)c3c(c(O)c1C2=O)C[C@@](O)(/C(CO)=N/NC(=O)CCCCCN1C(=O)C=CC1=O)C[C@@H]3O[C@H]1C[C@H](N)[C@H](O)[C@H](C)O1` [aldoxorubicin], the progression free disease is listed as “did not show a significant increase in progression free disease”.
